Assays:
p110δ/p85α = biological target: T1, p110δ/p85α (Homo sapiens, UniProt O00329); assay: Transcreener KINASE Assay, kinase inhibition of p110δ/p85α; assay type: biochemical; details: for IC50: read-out: PI3Kδ IC50
T1 construct: purchased Invitrogen
Method: (§1) PI3K kinases including p110α/p85α, p110δ/p85α and p110γ are purchased from Invitrogen, and p110β/p85α is from Millipore.
(§2) Primary screening data and IC50 values are measured using Transcreener™ KINASE Assay (Bellbrook, Catalog #3003-10K). […] It is a universal, homogenous, high throughput screening (HTS) technology using a far-red, competitive fluorescence polarization immunoassay based on the detection of ADP to monitor the activity of enzymes that catalyze group transfer reactions. Briefly, the Transcreener KINASE Assay is designed as a simple two-part, endpoint assay.
(§3) In the first step, the 25 ul kinase reaction is performed by preparing a reaction mixture containing 5 ul test compound (2% DMSO final concentration), 10 ul kinase, buffer (50 mM HEPES, 100 mM NaCl, 1 mM EGTA, 0.03% CHAPS, 3 mM MgCl2, and freshly supplemented 1 mM DTT), and 10 ul 30 uM PIP2/10 uM ATP. The plate is sealed and incubated for 80 min at room temperature. Next, 25 ul ADP detection mix is added per well. The plate is sealed again and incubated for 60 min at room temperature, and then measure fluorescence polarization by Tecan Infinite F500 Reader.
(§4) Data is analyzed and IC50s are generated using the add-in software for Microsoft Excel, Xlfit™ (version 2.0). IH %=(ADP amount under 2% DMSO-ADP amount under test compound)/ADP amount under 2% DMSO.

PI3Kγ = biological target: T2, PI3Kγ (Mus musculus, UniProt Q9JHG7); assay: Acumen Assay - Raw264.7 p-AKT Assay (C5a stimulated); assay type: cell-based; details: Raw264.7 macrophage cells, compound 30 min, 10 nM C5a 5 min, p-AKT (Ser473) readout; read-out: PI3Kγ cell-C5a Raw264.7 IC50
T2 construct: endogenous in cells; host or cells: Raw264.7 macrophage cells
T2 sequence (Q9JHG7 whole entry): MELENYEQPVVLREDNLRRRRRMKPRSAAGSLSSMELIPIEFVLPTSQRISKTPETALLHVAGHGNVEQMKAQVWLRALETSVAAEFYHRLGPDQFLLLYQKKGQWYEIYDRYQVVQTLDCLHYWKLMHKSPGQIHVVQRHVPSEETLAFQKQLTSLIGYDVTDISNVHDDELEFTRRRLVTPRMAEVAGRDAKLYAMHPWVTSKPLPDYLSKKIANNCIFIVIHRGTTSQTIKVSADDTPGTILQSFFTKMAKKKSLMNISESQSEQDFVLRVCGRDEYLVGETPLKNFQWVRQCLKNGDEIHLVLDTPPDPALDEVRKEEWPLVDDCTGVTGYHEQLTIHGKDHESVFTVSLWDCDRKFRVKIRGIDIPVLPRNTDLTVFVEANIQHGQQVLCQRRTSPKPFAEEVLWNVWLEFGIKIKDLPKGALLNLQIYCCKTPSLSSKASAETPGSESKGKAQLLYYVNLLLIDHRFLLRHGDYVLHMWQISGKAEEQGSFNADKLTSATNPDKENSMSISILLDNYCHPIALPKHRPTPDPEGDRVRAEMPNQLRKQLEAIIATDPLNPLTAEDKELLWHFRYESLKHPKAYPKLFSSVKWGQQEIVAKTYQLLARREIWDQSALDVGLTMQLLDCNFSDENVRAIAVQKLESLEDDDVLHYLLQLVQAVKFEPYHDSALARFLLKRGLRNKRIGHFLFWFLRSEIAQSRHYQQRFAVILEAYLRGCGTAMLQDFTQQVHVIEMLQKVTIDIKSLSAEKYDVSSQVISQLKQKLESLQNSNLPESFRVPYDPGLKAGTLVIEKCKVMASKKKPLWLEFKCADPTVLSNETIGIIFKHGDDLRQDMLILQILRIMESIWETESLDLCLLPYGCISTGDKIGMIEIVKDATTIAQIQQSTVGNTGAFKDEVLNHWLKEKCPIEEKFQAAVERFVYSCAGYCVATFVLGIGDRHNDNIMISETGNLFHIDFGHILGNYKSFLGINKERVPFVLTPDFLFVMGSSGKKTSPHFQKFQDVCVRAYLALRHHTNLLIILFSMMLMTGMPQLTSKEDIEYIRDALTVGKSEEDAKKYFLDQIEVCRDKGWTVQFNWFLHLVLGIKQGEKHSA
Method: Acumen® eX3 (A Mμltilaser Microplate Cytometer For Enhanced High Content Screening): TTP LabTech
3×10^4 Raw264.7 macrophage cells were seeded into 96-well plates with DMEM+10% heat-inactivated FBS at […], 90 ul/well, overnight. After starvation for 3 hr at 37° C. under 5% CO2, Raw264.7 cells were treated with 10 ul/well various concentrations of compound or 0.5% DMSO for 30 min, and then stimulated with 10 ul/well 10 nM C5a for 5 min.
1.) Cells were fixed 110 μL of 4% pre-warmed Paraformaldehyde (2% final), incubate for 45 min at room temperature.
2.) Remove paraformaldehyde solution. Add 100 μL of ice-cold 0.1% Triton X-100 in PBS and leave at 4° C. for 30 min.
3.) Wash once in 100 μL PBS.
4.) Incubate with 100 μL blocking buffer (1% BSA, in PBS) for 2 hours at room temperature.
5.) Wash once for 5 min with 100 ul PBS.
6.) Incubate with 40 μL 1:200 dilution of phospho AKT (Ser473) rabbit antibody in antibody dilution buffer (0.1% BSA, in PBS) overnight at 4° C.
7.) Wash for 3 times for 10 min with 100 ul PBS.
8.) Incubate for 90 min at room temperature with 50 μL of goat anti-rabbit Alex488 antibody at a 1:1,000 dilution in antibody dilution buffer (0.1% BSA, in PBS). Cover plate in foil to keep out of light.
9.) Wash for 3 times for 10 min with 100 μL PBS.
10.) Add 50 μL of 1.5 μM Propidium Iodide solution to each well to determine cell number at a 1:1,000 dilution in PBS (stock: 1.5 mM).
11.) Incubate at room temperature for 30 min.
12.) Seal the plate with a black cover-seal (supplied with plate).
13.) Load the plate into the Acumen Explorer and scan with the appropriate instrument settings.

p110γ = biological target: T3, p110γ (Homo sapiens, UniProt P48736); assay: Transcreener KINASE Assay, kinase inhibition of p110γ; assay type: biochemical; details: for IC50: read-out: PI3Kγ IC50
T3 construct: purchased Invitrogen
Method: PI3K kinases including p110α/p85α, p110δ/p85α and p110γ are purchased from Invitrogen, and p110β/p85α is from Millipore. Primary screening data and IC50 values are measured using Transcreener™ KINASE Assay (Bellbrook, Catalog #3003-10K). […] It is a universal, homogenous, high throughput screening (HTS) technology using a far-red, competitive fluorescence polarization immunoassay based on the detection of ADP to monitor the activity of enzymes that catalyze group transfer reactions. Briefly, the Transcreener KINASE Assay is designed as a simple two-part, endpoint assay. […] The plate is sealed and incubated for 80 min at room temperature. Next, 25 ul ADP detection mix is added per well. The plate is sealed again and incubated for 60 min at room temperature, and then measure fluorescence polarization by Tecan Infinite F500 Reader. Data is analyzed and IC50s are generated using the add-in software for Microsoft Excel, Xlfit™ (version 2.0).

p110β/p85α = biological target: T4, p110β/p85α (Homo sapiens, UniProt P42338); assay: Transcreener KINASE Assay, kinase inhibition of p110β/p85α; assay type: biochemical; details: for IC50: read-out: PI3Kβ IC50
T4 construct: purchased Millipore
T4 sequence (P42338 whole entry, species assumed): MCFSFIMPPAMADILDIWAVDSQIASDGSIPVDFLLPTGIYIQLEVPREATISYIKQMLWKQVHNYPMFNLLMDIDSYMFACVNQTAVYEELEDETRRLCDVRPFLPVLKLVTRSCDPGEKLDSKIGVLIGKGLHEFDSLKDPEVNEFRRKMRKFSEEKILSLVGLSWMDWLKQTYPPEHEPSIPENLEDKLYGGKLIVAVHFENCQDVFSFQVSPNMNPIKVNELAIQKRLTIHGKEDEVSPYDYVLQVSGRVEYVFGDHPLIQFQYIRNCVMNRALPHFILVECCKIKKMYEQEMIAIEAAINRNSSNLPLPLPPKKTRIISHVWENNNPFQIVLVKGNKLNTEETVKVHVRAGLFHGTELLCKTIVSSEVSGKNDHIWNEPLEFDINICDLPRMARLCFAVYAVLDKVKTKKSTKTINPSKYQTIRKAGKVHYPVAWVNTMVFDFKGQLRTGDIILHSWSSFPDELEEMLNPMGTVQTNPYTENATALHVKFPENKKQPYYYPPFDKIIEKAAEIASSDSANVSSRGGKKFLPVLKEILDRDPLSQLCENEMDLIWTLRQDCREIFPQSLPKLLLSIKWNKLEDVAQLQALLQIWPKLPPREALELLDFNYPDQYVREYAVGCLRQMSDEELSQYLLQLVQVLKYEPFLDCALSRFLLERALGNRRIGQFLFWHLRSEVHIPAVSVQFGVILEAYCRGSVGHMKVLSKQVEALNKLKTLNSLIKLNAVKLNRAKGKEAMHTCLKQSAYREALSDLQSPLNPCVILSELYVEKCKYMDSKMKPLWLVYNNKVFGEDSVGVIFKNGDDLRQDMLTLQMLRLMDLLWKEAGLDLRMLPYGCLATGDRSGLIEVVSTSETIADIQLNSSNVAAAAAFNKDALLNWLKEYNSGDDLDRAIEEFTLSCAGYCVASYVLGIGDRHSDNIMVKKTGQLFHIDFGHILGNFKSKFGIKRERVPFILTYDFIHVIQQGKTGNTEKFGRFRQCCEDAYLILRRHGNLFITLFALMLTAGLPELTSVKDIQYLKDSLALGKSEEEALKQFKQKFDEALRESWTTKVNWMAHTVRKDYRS
T4 sequence (P27986 whole entry partner, species assumed): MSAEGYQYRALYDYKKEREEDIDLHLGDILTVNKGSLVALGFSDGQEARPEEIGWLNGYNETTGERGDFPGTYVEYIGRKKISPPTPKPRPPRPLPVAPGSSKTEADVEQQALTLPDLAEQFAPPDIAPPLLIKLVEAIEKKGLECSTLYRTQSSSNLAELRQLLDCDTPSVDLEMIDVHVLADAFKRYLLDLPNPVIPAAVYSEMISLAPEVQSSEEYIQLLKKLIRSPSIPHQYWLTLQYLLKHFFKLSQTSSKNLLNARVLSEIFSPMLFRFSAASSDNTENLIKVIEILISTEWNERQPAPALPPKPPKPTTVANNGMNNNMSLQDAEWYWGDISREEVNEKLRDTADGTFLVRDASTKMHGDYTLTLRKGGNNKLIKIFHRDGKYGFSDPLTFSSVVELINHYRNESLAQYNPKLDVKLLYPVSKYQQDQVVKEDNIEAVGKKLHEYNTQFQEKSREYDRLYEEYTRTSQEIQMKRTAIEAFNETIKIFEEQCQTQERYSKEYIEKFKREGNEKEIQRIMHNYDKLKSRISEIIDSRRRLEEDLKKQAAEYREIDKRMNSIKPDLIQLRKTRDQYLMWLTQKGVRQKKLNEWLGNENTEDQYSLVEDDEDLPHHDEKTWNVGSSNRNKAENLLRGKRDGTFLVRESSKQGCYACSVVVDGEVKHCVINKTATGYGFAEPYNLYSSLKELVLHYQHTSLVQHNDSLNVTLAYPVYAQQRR
Method: as §1, §2, §3, §4

p110α/p85α = biological target: T5, p110α/p85α (Homo sapiens, UniProt P42336); assay: Transcreener KINASE Assay, kinase inhibition of p110α/p85α; assay type: biochemical
T5 construct: purchased Invitrogen
T5 sequence (P42336 whole entry, species assumed): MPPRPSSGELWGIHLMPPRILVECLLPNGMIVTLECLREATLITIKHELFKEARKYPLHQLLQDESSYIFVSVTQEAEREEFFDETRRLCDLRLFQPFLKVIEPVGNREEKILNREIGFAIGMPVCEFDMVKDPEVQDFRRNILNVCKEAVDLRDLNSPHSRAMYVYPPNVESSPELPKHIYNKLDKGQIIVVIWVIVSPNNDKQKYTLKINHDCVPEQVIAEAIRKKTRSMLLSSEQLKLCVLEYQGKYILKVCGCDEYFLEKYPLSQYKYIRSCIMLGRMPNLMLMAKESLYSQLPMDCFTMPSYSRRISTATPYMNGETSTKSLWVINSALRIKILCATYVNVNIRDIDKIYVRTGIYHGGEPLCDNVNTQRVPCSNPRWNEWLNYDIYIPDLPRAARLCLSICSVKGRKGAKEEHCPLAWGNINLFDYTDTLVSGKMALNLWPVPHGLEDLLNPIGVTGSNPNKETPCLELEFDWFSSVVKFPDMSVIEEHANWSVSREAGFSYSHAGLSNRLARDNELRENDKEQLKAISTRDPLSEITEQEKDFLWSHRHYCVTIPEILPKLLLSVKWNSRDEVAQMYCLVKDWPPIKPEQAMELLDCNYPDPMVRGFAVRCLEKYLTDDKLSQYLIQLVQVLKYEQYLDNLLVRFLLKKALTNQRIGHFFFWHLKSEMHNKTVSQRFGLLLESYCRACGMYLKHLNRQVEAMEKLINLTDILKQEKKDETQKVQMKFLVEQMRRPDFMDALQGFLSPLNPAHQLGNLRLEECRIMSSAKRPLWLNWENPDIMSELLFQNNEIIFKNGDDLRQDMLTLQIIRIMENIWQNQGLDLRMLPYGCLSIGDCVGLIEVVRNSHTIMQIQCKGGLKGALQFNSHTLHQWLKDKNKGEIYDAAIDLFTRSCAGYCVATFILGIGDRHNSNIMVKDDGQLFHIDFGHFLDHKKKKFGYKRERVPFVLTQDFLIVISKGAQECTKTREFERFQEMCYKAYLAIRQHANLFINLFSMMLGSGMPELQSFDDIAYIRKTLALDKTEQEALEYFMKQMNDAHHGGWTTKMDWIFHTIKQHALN
T5 sequence (P27986 whole entry partner, species assumed): as the sequence (P27986 whole entry partner, species assumed) above
Method: as §1, §2, §3, §4

T1 sequence (O00329 whole entry, species assumed): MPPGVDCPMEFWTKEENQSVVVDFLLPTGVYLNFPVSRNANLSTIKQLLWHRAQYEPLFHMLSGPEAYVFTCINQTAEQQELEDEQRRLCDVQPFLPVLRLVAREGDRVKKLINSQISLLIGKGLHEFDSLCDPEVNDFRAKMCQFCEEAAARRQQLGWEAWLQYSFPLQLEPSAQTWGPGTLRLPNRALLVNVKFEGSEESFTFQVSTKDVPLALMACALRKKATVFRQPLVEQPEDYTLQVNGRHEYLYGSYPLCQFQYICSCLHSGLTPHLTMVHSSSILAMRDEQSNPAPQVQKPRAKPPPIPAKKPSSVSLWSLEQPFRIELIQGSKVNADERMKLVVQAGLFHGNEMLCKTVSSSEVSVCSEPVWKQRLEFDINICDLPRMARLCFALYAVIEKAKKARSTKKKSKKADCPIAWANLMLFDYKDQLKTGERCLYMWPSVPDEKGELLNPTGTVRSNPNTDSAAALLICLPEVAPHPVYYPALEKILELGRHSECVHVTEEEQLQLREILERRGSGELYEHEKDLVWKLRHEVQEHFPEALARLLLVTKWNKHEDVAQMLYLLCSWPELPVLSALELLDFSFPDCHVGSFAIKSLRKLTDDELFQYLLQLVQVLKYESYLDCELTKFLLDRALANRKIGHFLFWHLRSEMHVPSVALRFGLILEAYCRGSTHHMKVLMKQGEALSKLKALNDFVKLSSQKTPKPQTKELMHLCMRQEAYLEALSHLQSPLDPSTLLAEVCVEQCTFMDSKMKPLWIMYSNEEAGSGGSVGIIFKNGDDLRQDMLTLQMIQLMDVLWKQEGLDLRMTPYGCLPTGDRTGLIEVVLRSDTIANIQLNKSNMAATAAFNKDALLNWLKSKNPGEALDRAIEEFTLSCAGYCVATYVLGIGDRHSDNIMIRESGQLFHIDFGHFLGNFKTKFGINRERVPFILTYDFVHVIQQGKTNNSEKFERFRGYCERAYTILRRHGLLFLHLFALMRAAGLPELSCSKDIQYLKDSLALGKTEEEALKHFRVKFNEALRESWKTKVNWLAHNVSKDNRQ
T1 sequence (P27986 whole entry partner, species assumed): as the sequence (P27986 whole entry partner, species assumed) above

| Compound | IC50 (PI3Kγ) | other results |
| --- | --- | --- |
| CC(Nc1nc(N)nc2c1C(=O)CCN2)c1cn2ccc(F)c2c(=O)n1-c1ccccc1 (single isomer, unassigned) [Compound 407] | 63 nM | IC50 (p110δ/p85α): 1 nM; IC50 (p110γ): 2 nM; IC50 (p110β/p85α): 68 nM |
| CC(Nc1nc(N)ncc1C#N)c1cn2ccc(F)c2c(=O)n1-c1ccccc1 (single isomer, unassigned) [Compound 449] | 87 nM | IC50 (p110δ/p85α): 1 nM; IC50 (p110γ): 4 nM; IC50 (p110β/p85α): 45 nM |
| CC(Nc1ncnc2[nH]cc(F)c12)c1cc2ncc(Cl)n2c(=O)n1-c1ccccc1 (single isomer, unassigned) [Compound 450] | 72 nM | IC50 (p110δ/p85α): 0.4 nM; IC50 (p110γ): 17 nM; IC50 (p110β/p85α): 42 nM |
| N#Cc1c[nH]c2ncnc(N3CCC[C@H]3c3nn4cccc4c(=O)n3-c3ccccc3)c12 [Compound 1, (S)-4-(2-(4-oxo-3-phenyl-3,4-dihydropyrrolo[1,2-f][1,2,4]triazin-2-yl)pyrrolidin-1-yl)-7H-pyrrolo[2,3-d]pyrimidine-5-carbonitrile] |  | PI3Kα IH % @ 1 uM (p110α/p85α): 50.8%; PI3Kδ IH % @ 1 uM (p110δ/p85α): 97.8%; IC50 (p110δ/p85α): 2 nM; PI3Kγ IH % @ 1 uM (p110γ): 91.9%; PI3Kβ IH % @ 1 uM (p110β/p85α): 47.7% |
| Nc1nc(N2CCC[C@H]2c2nn3cccc3c(=O)n2-c2ccccc2)c2nc[nH]c2n1 [Compound 2] |  | PI3Kα IH % @ 1 uM (p110α/p85α): 5.1%; PI3Kδ IH % @ 1 uM (p110δ/p85α): 98.2%; PI3Kγ IH % @ 1 uM (p110γ): 98.8%; PI3Kβ IH % @ 1 uM (p110β/p85α): 38.0% |
| O=c1c2cccn2nc([C@@H]2CCCN2c2ncnc3[nH]cc(Cl)c23)n1-c1ccccc1 [Compound 3] |  | PI3Kα IH % @ 1 uM (p110α/p85α): 12.0%; PI3Kδ IH % @ 1 uM (p110δ/p85α): >100%; IC50 (p110δ/p85α): 15 nM; PI3Kγ IH % @ 1 uM (p110γ): 82.5%; IC50 (p110γ): 365 nM; PI3Kβ IH % @ 1 uM (p110β/p85α): 17.8% |
| N#Cc1cnc(N)nc1N1CCC[C@H]1c1nn2ccc(Cl)c2c(=O)n1-c1ccccc1 [Compound 207] | 22 nM |  |
| N#Cc1cnc(N)nc1N1CC[C@H]1c1nn2ccc(Cl)c2c(=O)n1-c1ccccc1 [Compound 212] |  | IC50 (p110α/p85α; read-out: PI3Kα IC50): > 1000 nM |
| N#Cc1c[nH]c2ncnc(N3C[C@@H](F)C[C@H]3c3nn4ccc(Cl)c4c(=O)n3-c3cccc(F)c3)c12 [Compound 213] | 2 nM |  |
| O=c1c2c(Cl)ccn2nc([C@@H]2C[C@H](F)CN2c2ncnc3[nH]cnc23)n1-c1cccc(F)c1 [Compound 214] | 15 nM |  |
| CC(=O)c1c[nH]c2ncnc(N3CCC[C@H]3c3nn4ccc(F)c4c(=O)n3-c3ccccc3)c12 [Compound 218] | 42 nM |  |
| N#Cc1cnc(N)nc1N1C[C@@H](F)C[C@H]1c1nn2ccc(Cl)c2c(=O)n1-c1ccccc1 [Compound 229] | 11 nM |  |
| N#Cc1cnc(N)nc1N1CCC[C@H]1c1nn2ccc(Cl)c2c(=O)n1-c1ccc(F)cc1 [Compound 231] | 15 nM |  |
| N#Cc1cnc(N)nc1N1CCC[C@H]1c1nn2ccc(Cl)c2c(=O)n1-c1cccc(F)c1 [Compound 232] | 44 nM |  |
| C[C@H]1CCN(c2nc(N)ncc2C#N)C1c1nn2ccc(Cl)c2c(=O)n1-c1ccccc1 (stereo partly shown) [Compound 236] | 46 nM | IC50 (p110δ/p85α): 2 nM; IC50 (p110γ): 4 nM; IC50 (p110β/p85α): 81 nM |
| Nc1nc2c(c(N3CC[C@H]3c3nn4ccc(Cl)c4c(=O)n3-c3ccccc3)n1)C(=O)CCN2 [Compound 241] | 22 nM |  |
| Nc1nc2c(c(N3CCC[C@H]3c3nn4ccc(Cl)c4c(=O)n3-c3ccccc3)n1)C(=O)CCN2 [Compound 242] | 21 nM |  |
| CC(=O)c1c[nH]c2ncnc(N3C[C@@H](F)C[C@H]3c3nn4ccc(Cl)c4c(=O)n3-c3ccccc3)c12 [Compound 268] | 19 nM | PI3Kγ IH % @ 1 uM (p110γ): 100% |
| CC(Nc1ncnc2[nH]cc(F)c12)c1cn2ccc(Cl)c2c(=O)n1-c1ccccc1 (stereo not shown) [Compound 270] | 65 nM |  |

| Compound | IC50 (PI3Kγ) | other results |
| --- | --- | --- |
| CC(=O)c1c[nH]c2ncnc(NC(C)c3cn4ccc(Cl)c4c(=O)n3-c3ccccc3)c12 (stereo not shown) [Compound 272] | 36 nM |  |
| CC(=O)c1cnc(N)nc1NC(C)c1cn2ccc(Cl)c2c(=O)n1-c1ccccc1 (stereo not shown) [Compound 273] | 3 nM |  |
| Cc1nc(N)nc(N2CC[C@H]2c2nn3ccc(Cl)c3c(=O)n2-c2ccccc2)c1C#N [Compound 283] | 3 nM |  |
| CC(Nc1ncnc2[nH]cc(F)c12)c1cc2ncc(Cl)n2c(=O)n1-c1ccccc1 (stereo not shown) [Compound 285] | 46 nM |  |
| CC(=O)c1cnc(N)nc1NC(C)c1cc2ncc(Cl)n2c(=O)n1-c1ccccc1 (stereo not shown) [Compound 288] | 43 nM |  |
| CC(=O)c1cnc(N)nc1N1CC[C@H]1c1nn2ccc(Cl)c2c(=O)n1-c1ccccc1 [Compound 299] | 6 nM |  |
| CC(=O)c1cnc(N)nc1N1CC[C@H]1c1nn2ccc(Cl)c2c(=O)n1-c1ccc(F)cc1 [Compound 302] | 43 nM |  |
| O=c1c2c(Cl)ccn2nc([C@@H]2CCCN2c2ncnc3[nH]cnc23)n1-c1ccccn1 [Compound 311] | 54 nM | IC50 (p110δ/p85α): < 0.5 nM |
| CC(=O)c1cnc(N)nc1N1CCCC1c1cn2ccc(Cl)c2c(=O)n1-c1ccccc1 (stereo not shown) [Compound 321] | 9 nM |  |
| CC(=O)c1cnc(N)nc1N1CC[C@H]1c1nn2ccc(F)c2c(=O)n1-c1ccccc1 [Compound 323] | 80 nM |  |
| CC(=O)c1cnc(N)nc1N1C[C@H](C)[C@H]1c1nn2ccc(F)c2c(=O)n1-c1ccccc1 [Compound 324] | 63 nM |  |
| Nc1ncc(C(=O)C(F)(F)F)c(N2CC[C@H]2c2nn3ccc(Cl)c3c(=O)n2-c2ccccc2)n1 [Compound 325] | 80 nM | IC50 (p110β/p85α): > 1000 nM |
| CC(=O)c1c[nH]c2ncnc(N3CCC[C@H]3c3nn4ccc(Cl)c4c(=O)n3-c3ccccn3)c12 [Compound 340] | 45 nM |  |
| N#Cc1cnc(N)nc1N1C[C@@H](C#N)C[C@H]1c1nn2ccc(Cl)c2c(=O)n1-c1ccccc1 [Compound 351] | 5 nM |  |
| N#Cc1c[nH]c2ncnc(N3CCCC3c3cn4ccc(Cl)c4c(=O)n3-c3ccccc3)c12 (stereo not shown) [Compound 364] | 6 nM |  |
| CC(=O)c1cnc(N)nc1N1CCC[C@H]1c1nn2ccc(Cl)c2c(=O)n1-c1ccccc1 [Compound 369, (S)-2-(1-(5-acetyl-2-aminopyrimidin-4-yl)pyrrolidin-2-yl)-5-chloro-3-phenylpyrrolo[2,1-f][1,2,4]triazin-4(3H)-one] | 22 nM |  |
| N#Cc1c[nH]c2ncnc(N3CC(=O)C[C@H]3c3nn4ccc(Cl)c4c(=O)n3-c3ccccc3)c12 [Compound 380, (S)-4-(2-(5-chloro-4-oxo-3-phenyl-3,4-dihydropyrrolo[2,1-f][1,2,4]triazin-2-yl)-4-oxopyrrolidin-1-yl)-7H-pyrrolo[2,3-d]pyrimidine-5-carbonitrile] | 19 nM |  |
| N#Cc1cnc(N)nc1N1CC(=O)C[C@H]1c1nn2ccc(Cl)c2c(=O)n1-c1ccccc1 [Compound 403] | 11 nM |  |
